# ChEMBL document CHEMBL1201862, “PubChem BioAssay data set” (2004)
#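 Cells were grown in 96-well plates and exposed to each compound for 48 hours at five concentrations; endpoints were interpolated linearly between bracketing concentrations, or set to the highest concentration if not reached. GI50 = concentration required for 50% inhibition of growth.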 Calls of active or inactive are those of the source. Rule as the data show it: active = GI50 up to about 1.1 µM and inactive = higher.
# How the values were obtained:
# Assay in all cases: NCI tumour cell line growth inhibition, 48 h
# BT-549 = system: BT-549
# CAKI-1 = system: CAKI-1
# HL-60 = system: HL-60
# HOP-62 = system: HOP-62
# HT-29 = system: HT-29
# IGROV-1 = system: IGROV-1
# K562 = system: K562
# M14 = system: M14
# Malme-3M = system: Malme-3M
# NCI-H23 = system: NCI-H23
# NCI-H522 = system: NCI-H522
# OVCAR-4 = system: OVCAR-4
# RPMI-8226 = system: RPMI-8226
# SF-295 = system: SF-295
# SF-539 = system: SF-539
# SK-OV-3 = system: SK-OV-3
# SN12C = system: SN12C
# SNB-19 = system: SNB-19
# SNB-75 = system: SNB-75
# UO-31 = system: UO-31
Compound,GI50 (BT-549),GI50 (CAKI-1),GI50 (HL-60),GI50 (HOP-62),GI50 (HT-29),GI50 (IGROV-1),GI50 (K562),GI50 (M14),GI50 (Malme-3M),GI50 (NCI-H23),GI50 (NCI-H522),GI50 (OVCAR-4),GI50 (RPMI-8226),GI50 (SF-295),GI50 (SF-539),GI50 (SK-OV-3),GI50 (SN12C),GI50 (SNB-19),GI50 (SNB-75),GI50 (UO-31)
CN(C)CCCn1c2c3ccccc3ccc2c2oc(=O)c3ccccc3c21,> 40.6 µM (inactive),7.76 µM (inactive),2.28 µM (inactive),5.7 µM (inactive),5.53 µM (inactive),7.93 µM (inactive),2.45 µM (inactive),6.03 µM (inactive),7.64 µM (inactive),6.82 µM (inactive),3.52 µM (inactive),6.38 µM (inactive),4.63 µM (inactive),3.62 µM (inactive),4.66 µM (inactive),14.8 µM (inactive),5.62 µM (inactive),5.96 µM (inactive),2.48 µM (inactive),3.44 µM (inactive)
O=C1/C(=C\c2ccccc2)CN(C(=O)CCN2CCCCC2)C/C1=C/c1ccccc1,0.553 µM (active),1.71 µM (inactive),0.313 µM (active),12.9 µM (inactive),0.443 µM (active),1.95 µM (inactive),0.179 µM (active),1.7 µM (inactive),2.25 µM (inactive),1.89 µM (inactive),0.757 µM (active),1.73 µM (inactive),0.0832 µM (active),1.67 µM (inactive),3.25 µM (inactive),4.01 µM (inactive),0.966 µM (active),1.84 µM (inactive),0.834 µM (active),1.91 µM (inactive)
COc1cc2c3c(c1OC)C1(C=CC(=O)C=C1)CC3NCC2 (stereo not drawn),> 100 µM (inactive),> 100 µM (inactive),32.6 µM (inactive),> 100 µM (inactive),> 100 µM (inactive),> 100 µM (inactive),> 100 µM (inactive),> 100 µM (inactive),> 100 µM (inactive),> 100 µM (inactive),71 µM (inactive),> 100 µM (inactive),> 100 µM (inactive),> 100 µM (inactive),> 100 µM (inactive),> 100 µM (inactive),> 100 µM (inactive),> 100 µM (inactive),80.5 µM (inactive),
COc1ccc(C2=Nc3c(nc(SC)[nH]c3=O)NC(c3ccccc3)C2)cc1 (stereo not drawn),24.8 µM (inactive),17.1 µM (inactive),18.1 µM (inactive),35.4 µM (inactive),21.8 µM (inactive),19.5 µM (inactive),25.1 µM (inactive),25.4 µM (inactive),37.1 µM (inactive),20.6 µM (inactive),17.1 µM (inactive),,27.2 µM (inactive),27.4 µM (inactive),19.4 µM (inactive),18.1 µM (inactive),20.9 µM (inactive),23.8 µM (inactive),17.8 µM (inactive),20.8 µM (inactive)
CSC1SCC2C(=O)N(C)C3(CC3C)C(=O)OCC(NC(=O)c3nc4ccccc4cc3O)C(=O)NC(C)C(=O)N(C)C1C(=O)N(C)C1(CC1C)C(=O)OCC(NC(=O)c1nc3ccccc3cc1O)C(=O)NC(C)C(=O)N2C (stereo not drawn),< 0.01 µM (active),0.000871 µM (active),< 0.0001 µM (active),< 0.0001 µM (active),< 0.0001 µM (active),< 0.0001 µM (active),< 0.0001 µM (active),< 0.0001 µM (active),< 0.0001 µM (active),< 0.0001 µM (active),< 0.01 µM (active),< 0.0001 µM (active),< 0.0001 µM (active),< 0.0001 µM (active),< 0.0001 µM (active),< 0.0001 µM (active),< 0.0001 µM (active),< 0.0001 µM (active),< 0.0001 µM (active),0.000449 µM (active)
COC(=O)CCCc1nc2ccccc2nc1/N=N/c1ccccc1,53.7 µM (inactive),41.6 µM (inactive),2.57 µM (inactive),52.5 µM (inactive),32.1 µM (inactive),25.5 µM (inactive),19.3 µM (inactive),27.6 µM (inactive),17.4 µM (inactive),39 µM (inactive),19.1 µM (inactive),50.8 µM (inactive),22.9 µM (inactive),41 µM (inactive),70.8 µM (inactive),> 100 µM (inactive),51.5 µM (inactive),56 µM (inactive),38.5 µM (inactive),25.9 µM (inactive)
COC(=O)/C(=C\c1cn(C(C)=O)c2ccccc12)P(=O)(OC)OC,15.8 µM (inactive),12.6 µM (inactive),78.5 µM (inactive),14.9 µM (inactive),16.1 µM (inactive),13.3 µM (inactive),25.1 µM (inactive),15.2 µM (inactive),16.7 µM (inactive),14.8 µM (inactive),11.2 µM (inactive),14.6 µM (inactive),17.1 µM (inactive),14.9 µM (inactive),16 µM (inactive),19 µM (inactive),14.8 µM (inactive),18.1 µM (inactive),12 µM (inactive),13.1 µM (inactive)
